From EP4817688A2, “DEGRADING PKCß1 TO TREAT CANCER” (Mayo Foundation for Medical Education and Research, priority 2020, dated 2022)

Columns and labels:
Assay type in all cases: cell-based
[1] = system: BT549 cells; experiment: crystal violet (CV) proliferation assay, BT549; conditions: Homo sapiens, BT-549, BT549 (PKCβ1^high, Rb^regative) 2000 cells
Procedure: (§1) Cell proliferation rates were determined using crystal violet assays. One thousand cells per well were plated in 96 well tissue culture plates and treated the following day with a bifunctional compound or control for 7 days in replicates of 8. Cells were fixed with 25% glutaraldehyde for 10 minutes with shaking, washed 5 times with distilled water, stained with a 1% crystal violet solution (solubilized in 25% methanol) for 10 minutes, washed again 5 times and allowed to dry. De-staining was performed using […] sodium citrate in 50% ethanol followed by quantification using a 96 well spectrophotometer set at an absorbance of 550 nm.

[2] = system: PKCβ1, E2F1, and Cyclin D1; experiment: western blot in BT549 and MDAMB436 cells (Example 6); conditions: 1 µM, 24, 48, and 72 hours
Procedure: TNBC BT549 and MDAMB436 cells were cultured in phenol-red free DMEM/F12 medium supplemented with 10% fetal bovine serum (FBS) and 1% AA. On day 1, cells were plated at a density of 2 x 10^5 BT549 cells or 4 x 10^5 MDAMB436 cells in a 6-well plate (two wells per treatment). The next day, cells were treated with DMSO, 1 µM Pr-9 (positive control), 1 µM Pr-9-1, 1 µM Pr-9-4, or 1 µM ENDX (negative control). Radioimmunoprecipitation Assay (RIPA) protein lysates were collected 24, 48, and 72 hours after treatment.
For western blot analysis, 25 µg of protein lysates were run on Criterion precast 10% Bis-Tris gel, transferred to PVDF membrane, incubated in TBST-5% milk for one hour, and then incubated overnight with PKCβ1 (SC8049, mouse, 1:200), E2F1 (SC251, mouse, 1:250), Cyclin D1 (CS2978, rabbit, 1:1000), or Actin (Sigma A2228, mouse, 1:10,000 or CS8457, rabbit, 1:2000) primary antibodies in TBST-5% BSA solution. Membranes were washed in TBS-T, incubated for one-hour in HRP-linked anti-rabbit or anti-mouse secondary antibodies in TBST-5% milk, and washed in TBS-T. Bands were developed using west-pico or west-femto chemiluminescent substrate reagents.

[3] = system: MDAH-2774 cells; experiment: crystal violet (CV) proliferation assay, MDAH-2774; conditions: Homo sapiens; MDAH-2774 (PKCβ1^high) 1000 cells/well; read-out: Approximate IC50
Procedure: as §1
Based on the potent anti-proliferative activity of ENDX-PROTACs TC-Pr-006, TC-Pr-007, TC-Pr -008, and TC-Pr -009 in TNBC cells, the efficacy of these compounds for inhibiting the growth of ovarian cancer cells was tested. This analysis utilized KURAMOCHI cells, which represent the high-grade serous subtype (the most malignant form that accounts for 70% of all ovarian cancers and associates with poor clinical outcome) and MDAH-2774 cells, which represent endometrioid ovarian cancer and accounts for 20% of all ovarian cancer. PKCβ1 was confirmed to be expressed in both ovarian cancer cell line models, with MDAH-2774 cells expressing higher amounts of PKCβ1 compared to KURAMOCHI cells (FIG. 5A). […]

[4] = system: Rb-proficient MDAMB231 and Rb-deficient BT549 and MDAMB436 cells; experiment: crystal violet (CV) proliferation assay, TNBC cells (text statements covering several lines); conditions: MDAMB231 and BT549 cells (FIG. 4A and TABLE 1)
Procedure: as §1

IC50 [1]: 67 nM
Compound: CCC(=C(c1ccc(O)cc1)c1ccc(OCCN(C)C(=O)COCCOCCNC(=O)Cc2ccc3c(c2)CN(C2CCC(=O)NC2=O)C3=O)cc1)c1ccccc1 (centres unmarked) [TC-Pr-009, 2-[2-(2-2-[2-(2,6-dioxopiperidin-3-yl)-1-oxo-2,3-dihydro-1H-isoindol-5-yl]acetamidoethoxy)ethoxy]-N-(2-4-[1-(4-hydroxyphenyl)-2-phenylbut-1-en-1-yl]phenoxyethyl)-N-methylacetamide]
PKCβ1 protein levels [2]: altered to varying extent | protein levels of E2F1 and Cyclin D1 ([2]; listed as Pr-9): clearly reduced | IC50 [3]: 1000 to 10000 nM | apoptosis [4]: induced apoptosis
